For twelve compounds, IC50 results are on record in US5618785A, “Peptide inhibitors of selectin binding” (Centocor, Inc., priority 1995, dated 1997).

Structures are written as SMILES. Residues, ends and D or L forms follow the SMILES beside them.

The term IC50 denotes the concentration that gives 50% inhibition. A low value points to greater potency.

The test has as its system P-selectin. Briefly: Inhibition of binding of human neutrophils to P-selectin (neutrophil adhesion to purified P-selectin immobilized on plastic wells). It counts as cell-based. Particulars: P-selectin isolated from human platelets, plated at 5 micrograms/mL, myeloperoxidase readout, peptides tested 1.0 mM to 0.001 mM. From the text:
Peptides can be screened for their ability to inhibit adhesion to cells, for example, neutrophil adhesion to purified P-selectin immobilized on plastic wells, using the assay described by Geng, et al., Nature 343, 757-760 (1990).
Human neutrophils are isolated from heparinized whole blood by density gradient centrifugation on Mono-Poly resolving media, Flow Laboratories. Neutrophil suspensions are greater than 98% pure and greater than 95% viable by trypan blue exclusion. For adhesion assays, neutrophils are suspended at a concentration of 2×10^6 cells/mL in Hanks' balanced salt solution containing 1.26 mM Ca^2+ and 0.81 mM Mg^2+ (HBSS, Gibco) with 0.05 mg/mL human serum albumin (HBSS/HSA). Adhesion assays are conducted in triplicate in 96-well microtiter plates, Corning, incubated at 4° C. overnight with 50 microliters of various protein solutions.
P-selectin is isolated from human platelet lysates by immunoaffinity chromatography on antibody S12-Sepharose™ and ion-exchange chromatography on a Mono-Q™ column (FLPC, Pharmacia Fine Chemicals), as follows.
Outdated human platelet packs (100 units) obtained from a blood bank and stored at 4° C. are pooled, adjusted to 5 mM EDTA at pH 7.5, centrifuged at 4,000 rpm for 30 minutes in 1 liter bottles, then washed three times with 1 liter of 0.1M NaCl, 20 mM Tris pH 7.5 (TBS), 5 mM EDTA, 5 mM benzamidine.
The pellets are then resuspended in a minimum amount of wash buffer and made 1 mM in DIFP, then frozen in 50 mL screwtop tubes at -80° C. The frozen platelets are thawed and resuspended in 50 mL TBS, 5 mM benzamidine, 5 mM EDTA pH 7.5, […]. The suspension is frozen and thawed two times in a dry ice-acetone bath using a 600 mL lyophilizing flask, then homogenized in a glass/teflon mortar and pestle and made 1 mM in DIFP. The NaCl concentration is adjusted to 0.5M with a stock solution of 4M NaCl. After stirring the suspension at 4° C., it is centrifuged in polycarbonate tubes at 33,000 rpm for 60 minutes at 4° C. The supernatant (0.5M NaCl wash) is removed and saved; this supernatant contains the soluble form of P-selectin. Care is taken not to remove the top part of the pellet with the supernatant. The pellets are then homogenized in extraction buffer (TBS, 5 mM benzamidine, 5 mM EDTA, pH 7.5, 100 μM leupeptin, 2% Triton X-100). After centrifugation at 19,500 rpm for 25 minutes at 4° C., the supernatant is removed. The extraction procedure is repeated with the pellet and the supernatant is combined with the first supernatant. The combined extracts, which contain the membrane form of P-selectin, are adjusted to 0.5M NaCl.
The soluble fraction (0.5M NaCl wash) and the membrane extract (also adjusted to 0.5M NaCl) are absorbed with separate pools of the monoclonal antibody S12 (directed to P-selectin) previously coupled to Affigel (Biorad) at 5 mg/mL for 2 hours at 4° C. After letting the resins settle, the supernatants are removed. The S12 Affigel containing bound GMP-140 is then loaded into a column and washed overnight at 4° C. with 400 mL of 0.5M NaCl, 20 mM Tris pH 7.5, 0.01% Lubrol PX.
Bound P-selectin is eluted from the S12 Affigel with 100 mL of 80% ethylene glycol, 1 mM MES pH 6.0, 0.01% Lubrol PX. Peak fractions with absorbance at 280 nm are pooled. Eluates are dialyzed against TBS with 0.05% Lubrol, then applied to a Mono Q column (FPLC from Pharmacia). The concentrated protein is step eluted with 2M NaCl, 20 mM Tris pH 7.5 (plus 0.05% Lubrol PX for the membrane fraction). Peak fractions are dialyzed into TBS pH 7.5 (plus 0.05% Lubrol PX for the membrane fraction).
P-selectin is plated at 5 micrograms/mL and the control proteins: human serum albumin (Alb), platelet glycoprotein IIb/IIIa (IIb), von Willebrand factor (vWF), fibrinogen (FIB), thrombomodulin (TM), gelatin (GEL) or human serum (HS), are added at 50 micrograms/mL. […]
For `CC[C@H](C)[C@H](NC(=O)[C@H](Cc1ccccc1)NC(=O)[C@@H](NC(=O)[C@H](CC(C)C)NC(=O)[C@H](CCCCN)NC(=O)[C@@H](NC(=O)[C@H](Cc1ccc(O)cc1)NC(C)=O)[C@@H](C)O)C(C)C)C(=O)N[C@@H](CCC(N)=O)C(N)=O` [Ac--YTKLVFIQ--NH2, Acetyl-tyrosyl-threonyl-lysyl-leucyl-valyl-phenylalanyl-isoleucyl-glutamine-amide] (Ac-YTKLVFIQ-NH2), the IC50 was determined as 149 µM.
The compound `CC[C@H](C)[C@H](NC(=O)[C@H](Cc1ccccc1)NC(=O)[C@@H](NC(=O)[C@H](CC(C)C)NC(=O)[C@H](CCCCN)NC(=O)[C@@H](NC(=O)[C@@H](N)Cc1ccc(O)cc1)[C@@H](C)O)C(C)C)C(=O)N[C@@H](CCC(N)=O)C(N)=O` [YTKLVFIQ--NH2, Tyrosyl-threonyl-lysyl-leucyl-valyl-phenylalanyl-isoleucyl-glutamine-amide] (H-YTKLVFIQ-NH2) came in with a concentration for half-maximal inhibition (IC50) of 22 µM.
Regarding `CC[C@H](C)[C@H](NC(=O)[C@H](C)NC(=O)[C@@H](NC(=O)[C@H](CCc1ccccc1)NC(=O)[C@H](CCCCN)NC(=O)[C@@H](NC(=O)[C@@H](N)Cc1ccc(O)cc1)[C@@H](C)O)C(C)C)C(=O)N[C@@H](CCC(N)=O)C(N)=O` [YTK--(homo-F)--VAIQ--NH2, Tyrosyl-threonyl-lysyl-(homo-phenylalanyl)-valyl-alanyl-isoleucyl-glutamine-amide] (HELM PEPTIDE1{Y.T.K.[O=C([C@H](CCc1ccccc1)N[*:1])[*:2]].V.A.I.Q.[am]}$$$$V2.0), the 50% inhibitory concentration (IC50) turned out to be 52 µM.
`CSCC[C@H](NC(=O)[C@@H](NC(=O)[C@@H](N)Cc1ccc(O)cc1)[C@@H](C)O)C(=O)N[C@@H](CC(C)C)C(=O)N[C@H](C(=O)N[C@@H](C)C(=O)N[C@@H](Cc1ccccc1)C(=O)N[C@@H](CCC(N)=O)C(N)=O)C(C)C` [YTMLVAFQ--NH2, Tyrosyl-threonyl-methionyl-leucyl-valyl-alanyl-phenylalanyl-glutamine-amide] (H-YTMLVAFQ-NH2) had an IC50 of 93 µM.
Under `CC[C@H](C)[C@H](NC(=O)[C@H](C)NC(=O)[C@@H](NC(=O)[C@H](Cc1ccc(O)cc1)NC(=O)[C@H](CCCCN)NC(=O)[C@@H](NC(=O)[C@@H](N)Cc1ccc(O)cc1)[C@@H](C)O)C(C)C)C(=O)N[C@@H](CCC(N)=O)C(N)=O` [YTKYVAIQ--NH2, Tyrosyl-threonyl-lysyl-tyrosyl-valyl-alanyl-isoleucyl-glutamine-amide] (H-YTKYVAIQ-NH2) stands 64 µM; under `CC(=O)N[C@@H](Cc1ccc(O)cc1)C(=O)N[C@H](C(=O)N[C@@H](CCCCN)C(=O)N[C@@H](CC(C)C)C(=O)N[C@H](C(=O)N[C@@H](Cc1ccccc1)C(=O)N[C@@H](CCC(N)=O)C(=O)N[C@@H](CCC(N)=O)C(N)=O)C(C)C)[C@@H](C)O` [Ac--YTKLVFEQ--NH2, Acetyl-tyrosyl-threonyl-lysyl-leucyl-valyl-phenylalanyl-glutaminyl-glutamine-amide] (Ac-YTKLVFQQ-NH2), 99 µM.
Under `CC[C@H](C)[C@H](NC(=O)[C@@H](CCc1ccccc1)NC(=O)[C@@H](NC(=O)[C@H](CC(C)C)NC(=O)[C@H](CCCCN)NC(=O)[C@@H](NC(=O)[C@H](Cc1ccc(O)cc1)NC(C)=O)[C@@H](C)O)C(C)C)C(=O)N[C@@H](CCC(N)=O)C(N)=O` [Ac--YTKLV--(D-homo-F)--IQ--NH2, Acetyl-tyrosyl-threonyl-lysyl-leucyl-valyl-(D-homo-phenylalanyl)-isoleucyl- glutamine-amide] (HELM PEPTIDE1{[ac].Y.T.K.L.V.[O=C([C@@H](CCc1ccccc1)N[*:1])[*:2]].I.Q.[am]}$$$$V2.0) stands 26 µM.
`CC[C@@H](C)[C@@H](NC(=O)[C@@H](Cc1ccccc1)NC(=O)[C@H](NC(=O)[C@@H](CC(C)C)NC(=O)[C@@H](Cc1c[nH]cn1)NC(=O)CNC(=O)[C@H](N)CCCNC(=N)N)C(C)C)C(=O)N[C@H](CCC(N)=O)C(N)=O` [rGhlvfiq--NH2, D-arginyl-glycyl-D-histidyl-D-leucyl-D-valyl-D-phenylalanyl-D-isoleucyl-D-glutamine-amide] (HELM PEPTIDE1{[dR].G.[dH].[dL].[dV].[dF].[dI].[dQ].[am]}$$$$V2.0) showed an IC50 of 270 µM.
Under `CC[C@H](C)[C@H](NC(=O)[C@H](Cc1c[nH]cn1)NC(=O)[C@@H](NC(=O)[C@H](CC(C)C)NC(=O)[C@H](CCCCN)NC(=O)[C@@H](NC(=O)[C@H](Cc1ccc(O)cc1)NC(C)=O)[C@@H](C)O)C(C)C)C(=O)N[C@@H](CCC(N)=O)C(N)=O` [Ac--YTKLVHIQ--NH2, Acetyl-tyrosyl-threonyl-lysyl-leucyl-valyl-histidyl-isoleucyl-glutamine-amide] (Ac-YTKLVHIQ-NH2) stands 81 µM; under `CC[C@H](C)[C@H](NC(=O)[C@H](C)NC(=O)[C@@H](NC(=O)[C@H](Cc1ccccc1)NC(=O)[C@H](CCCCN)NC(=O)[C@@H](NC(=O)[C@@H](N)Cc1ccc(O)cc1)[C@@H](C)O)C(C)C)C(=O)N[C@@H](CCC(N)=O)C(N)=O` [YTKFVAIQ--NH2, Tyrosyl-threonyl-lysyl-phenylalanyl-valyl-alanyl-isoleucyl-glutamine-amide] (H-YTKFVAIQ-NH2), 21 µM.
The value for `CC[C@H](C)[C@H](NC(=O)[C@H](Cc1ccc(O)cc1)NC(=O)[C@@H](NC(=O)[C@H](CC(C)C)NC(=O)[C@H](Cc1c[nH]cn1)NC(=O)CNC(=O)[C@H](CCCNC(=N)N)NC(C)=O)C(C)C)C(=O)N[C@@H](CCC(N)=O)C(N)=O` [Ac--RGHLVYIQ--NH2, Acetyl-arginyl-glycyl-histidyl-leucyl-valyl-tyrosyl-isoleucyl-glutamine-amide] (Ac-RGHLVYIQ-NH2) was 428 µM.
For the compound `CC[C@H](C)[C@H](NC(=O)[C@H](C)NC(=O)[C@@H](NC(=O)[C@H](Cc1ccccc1)NC(=O)[C@H](CCSC)NC(=O)[C@@H](NC(=O)[C@@H](N)Cc1ccc(O)cc1)[C@@H](C)O)C(C)C)C(=O)N[C@@H](CCC(N)=O)C(N)=O` [YTMFVAIQ--NH2, Tyrosyl-threonyl-methionyl-phenylalanyl-valyl-alanyl-isoleucyl-glutamine-amide] (H-YTMFVAIQ-NH2), the IC50 is 114 µM.
